Experimental findings from patent publication US20250136722A1, “CYTOTOXICITY TARGETING CHIMERAS” (GLAXOSMITHKLINE INTELLECTUAL PROPERTY DEVELOPMENT LIMITED, priority 2021, published 2025) are described below.

Where “and” joins values, the source holds several entries; their conditions need not be identical. Identical values can stand only once.

The test concerns the target T1, CHOK1 cells engineered to overexpress human CCR2 (Homo sapiens, UniProt P41597).
T1 construct: expressed in transfected cells; host or cells: CHOK1 cells
Description: Antibody dependent cellular cytotoxicity (ADCC) reporter assay (Example 199). In kind it is cell-based. Particulars: with anti-cotinine antibody SEQ ID NO: 11/12; CHOK1-human CCR2 target cells, Jurkat FcγRIIIa NFAT-luciferase reporter cells; 12-18 hours; read-out: ADCC Reporter Assay pEC50 (converted). As for the experimental part: An antibody dependent cellular cytoxicity reporter assay was conducted using the following four assay components: (i) ARM compound of Formula (I) targeting CCR2 (concentrations ranging from 1 pM to 10 μM) (ii) anti-cotinine antibody having a heavy chain sequence of SEQ ID NO: 11 and a light chain sequence of SEQ ID NO: 12 (rabbit variable region with human IgG1 Fc domain containing a DE mutation (S239D/1332E)) (concentrations ranging from 0.01 μg/mL to 200 μg/mL); (iii) target cells: CHOK1 cells engineered to overexpress either human CCR2 (typically 1000-20,000 cells per well) and (iv) reporter cells: Jurkat cells engineered to express FcγRIIIa with the reporter gene luciferase under the control of the NFAT promoter (typically 3000-75,000 cells per well). Reagents were combined in a final volume of 20 μL in a 384-well tissue culture treated plate. All four assay components were incubated together for about 12-18 hours. Thereafter, BioGlo Detection reagent (Promega) was added to the wells to lyse the cells and provide a substrate for the luciferase reporter protein. Luminescence signal was measured on a microplate reader and signal:background was calculated by dividing the signal of a test well by the signal obtained when no heterobivalent compound of Formula (I) was added. EC50 calculations were done using Graphpad Prism Software, specifically a nonlinear regression curve fit (Y=Bottom+(Top−Bottom)/(1+10^((Log EC50−X)*HillSlope))).
ARMs compounds of Formula (I) of the invention were tested for ADCC activity in the above assay in or more experimental runs and the results are shown in Table 3 below. Potency of the compounds of Formula (I) of the invention is reported as a pEC50 value. The pEC50 value is the negative log of the EC50 value, wherein the EC50 value is the half maximal effective concentration measured in molar (M). For compounds tested in more than one experimental run, the pEC50 value is reported as an average.
On to `CC(C)N(C)[C@@H]1CC[C@H](N2CC[C@H](Nc3ncnc4ccc(C(F)(F)F)cc34)C2=O)[C@H](NC(=O)c2ccc(NCCOCCOCCOCCOCCNC(=O)[C@H]3CC(=O)N(C)[C@@H]3c3cccnc3)nc2)C1` [Example 128, N-((1R,2S,5R)-5-(Isopropyl(methyl)amino)-2-((S)-2-oxo-3-((6-(trifluoromethyl)quinazolin-4-yl)amino)pyrrolidin-1-yl)cyclohexyl)-6-((1-((2S,3S)-1-methyl-5-oxo-2-(pyridin-3-yl)pyrrolidin-3-yl)-1-oxo-5,8, 11, 14-tetraoxa-2-azahexadecan-16-yl)amino)nicotinamide], for which the EC50 was 1 nM. For the molecule `CC(C)N(C)[C@@H]1CC[C@H](N2CC[C@H](Nc3ncnc4ccc(C(F)(F)F)cc34)C2=O)[C@H](NC(=O)[C@H]2CC[C@H](C3CCN(CCOCCOCCNC(=O)[C@H]4CC(=O)N(C)[C@@H]4c4cccnc4)CC3)CC2)C1` [Example 189, (2S,3S)-N-(2-(2-(2-(4-((1R,4r)-4-(((1R,2S,5R)-5-(Isopropyl(methyl)amino)-2-((S)-2-oxo-3-((6-(trifluoromethyl)quinazolin-4-yl)amino)pyrrolidin-1-yl)cyclohexyl)carbamoyl)cyclohexyl)piperidin-1-yl)ethoxy)ethoxy)ethyl)-1-methyl-5-oxo-2-(pyridin-3-yl)pyrrolidine-3-carboxamide], the EC50 was 6.31 nM. With `CC(C)N(C)[C@@H]1CC[C@H](N2CC[C@H](Nc3ncnc4ccc(C(F)(F)F)cc34)C2=O)[C@H](NC(=O)[C@H]2CC[C@@H](NC(=O)CCOCCOCCNC(=O)CCCNC(=O)[C@H]3CC(=O)N(C)[C@@H]3c3cccnc3)CC2)C1` [Example 176, (2S,3S)-N-(4-((2-(2-(3-(((1S,4s)-4-(((1R,2S,5R)-5-(Isopropyl(methyl)amino)-2-((S)-2-oxo-3-((6-(trifluoromethyl)quinazolin-4-yl)amino)pyrrolidin-1-yl)cyclohexyl)carbamoyl)cyclohexyl)amino)-3-oxopropoxy)ethoxy)ethyl)amino)-4-oxobutyl)-1-methyl-5-oxo-2-(pyridin-3-yl)pyrrolidine-3-carboxamide], the EC50 is 0.794 nM and 0.398 nM. `CC(C)N(C)[C@@H]1CC[C@H](N2CC[C@H](Nc3ncnc4ccc(C(F)(F)F)cc34)C2=O)[C@H](NC(=O)[C@H]2CC[C@H](c3ccc(C(=O)NCCOCCOCCNC(=O)[C@H]4CC(=O)N(C)[C@@H]4c4cccnc4)nc3)CC2)C1` [Example 141]: the EC50 is 2 nM.

As to `CC(C)N(C)[C@@H]1CC[C@H](N2CC[C@H](Nc3ncnc4ccc(C(F)(F)F)cc34)C2=O)[C@H](NC(=O)[C@H]2CC[C@@H](NC(=O)CCOCCNC(=O)CCOCCCNC(=O)[C@H]3CC(=O)N(C)[C@@H]3c3cccnc3)CC2)C1` [Example 101], the EC50 is 0.278 nM.

For `CC(C)N(C)[C@@H]1CC[C@H](N2CC[C@H](Nc3ncnc4ccc(C(F)(F)F)cc34)C2=O)[C@H](NC(=O)CCCCCCCCNCCCCCCCCCCNC(=O)[C@H]2CC(=O)N(C)[C@@H]2c2cccnc2)C1` [compound 196], the EC50 was 0.251 nM. For the molecule `CC(C)N(C)[C@@H]1CC[C@H](N2CC[C@H](Nc3ncnc4ccc(C(F)(F)F)cc34)C2=O)[C@H](NC(=O)c2cccc(NCCOCCOCCOCCOCCOCCNC(=O)[C@H]3CC(=O)N(C)[C@@H]3c3cccnc3)n2)C1` [Example 124], the EC50 was 2 nM.

Regarding `CC(C)N(C)[C@@H]1CC[C@H](N2CC[C@H](Nc3ncnc4ccc(C(F)(F)F)cc34)C2=O)[C@H](NC(=O)c2cccc(NCCOCCOCCOCCOCCNC(=O)[C@H]3CC(=O)N(C)[C@@H]3c3cccnc3)n2)C1` [Example 123, N-((1R,2S,5R)-5-(Isopropyl(methyl)amino)-2-((S)-2-oxo-3-((6-(trifluoromethyl)quinazolin-4-yl)amino)pyrrolidin-1-yl)cyclohexyl)-6-((1-((2S,3S)-1-methyl-5-oxo-2-(pyridin-3-yl)pyrrolidin-3-yl)-1-oxo-5,8,11,14-tetraoxa-2-azahexadecan-16-yl)amino)picolinamide], the EC50 is 5.01 nM. Take `CN1C(=O)C[C@H](C(=O)NCCOCC(=O)NCCOCCC(=O)NCCOCCC(=O)N[C@@H]2C[C@H](NC(C)(C)C)CC[C@@H]2N2CC[C@H](Nc3ncnc4ccc(C(F)(F)F)cc34)C2=O)[C@H]1c1cccnc1` [Example 106]: the EC50 is 0.558 nM.

On to `CC(C)N(C)[C@@H]1CC[C@H](N2CC[C@H](Nc3ncnc4ccc(C(F)(F)F)cc34)C2=O)[C@H](NC(=O)c2ccc(OC3CCN(CCOCCOCCNC(=O)[C@H]4CC(=O)N(C)[C@@H]4c4cccnc4)CC3)cc2)C1` [Example 91], for which the EC50 is 2 nM. For the molecule `CC(C)N(C)[C@@H]1CC[C@H](N2CC[C@H](Nc3ncnc4ccc(C(F)(F)F)cc34)C2=O)[C@H](NC(=O)C[C@H]2CC[C@H](NC(=O)CCOCCOCCOCCNC(=O)[C@H]3CC(=O)N(C)[C@@H]3c3cccnc3)CC2)C1` [Example 33], the EC50 is 4.54 nM. As to `CC(C)N(C)[C@@H]1CC[C@H](N2CC[C@H](Nc3ncnc4ccc(C(F)(F)F)cc34)C2=O)[C@H](NC(=O)C2CCC3(CC2)CCN(CCOCCOCCNC(=O)[C@H]2CC(=O)N(C)[C@@H]2c2cccnc2)CC3)C1` [Example 93], the EC50 was 3.98 nM. For the molecule `CC(C)N(C)[C@@H]1CC[C@H](N2CC[C@H](Nc3ncnc4ccc(C(F)(F)F)cc34)C2=O)[C@H](NC(=O)c2cnn(C3CCN(C(=O)CCCCCCCCCCNC(=O)[C@H]4CC(=O)N(C)[C@@H]4c4cccnc4)CC3)c2)C1` [Example 156], the EC50 was 0.794 nM.

For `CC(C)N(C)[C@@H]1CC[C@H](N2CC[C@H](Nc3ncnc4ccc(C(F)(F)F)cc34)C2=O)[C@H](NC(=O)c2cnn(C3CCN(CCOCCOCCOCCNC(=O)[C@H]4CC(=O)N(C)[C@@H]4c4cccnc4)CC3)c2)C1` [Example 129, N-((1R,2S,5R)-5-(Isopropyl(methyl)amino)-2-((S)-2-oxo-3-((6-(trifluoromethyl)quinazolin-4-yl)amino)pyrrolidin-1-yl)cyclohexyl)-1-(1-(1-((2S,3S)-1-methyl-5-oxo-2-(pyridin-3-yl)pyrrolidin-3-yl)-1-oxo-5,8,11-trioxa-2-azatridecan-13-yl)piperidin-4-yl)-1H-pyrazole-4-carboxamide], the EC50 is 5.01 nM.

`CC(C)N(C)[C@@H]1CC[C@H](N2CC[C@H](Nc3ncnc4ccc(C(F)(F)F)cc34)C2=O)[C@H](NC(=O)C23CCC(NC(=O)CCOCCOCCOCCNC(=O)[C@H]4CC(=O)N(C)[C@@H]4c4cccnc4)(CC2)CC3)C1` [Example 25]: the EC50 is 20 nM. Consider `CC(C)N(C)[C@@H]1CC[C@H](N2CC[C@H](Nc3ncnc4ccc(C(F)(F)F)cc34)C2=O)[C@H](NC(=O)[C@H]2CC[C@@H](NC(=O)COCCOCCNC(=O)CCNC(=O)[C@H]3CC(=O)N(C)[C@@H]3c3cccnc3)CC2)C1` [Example 82], for which the EC50 is 0.479 nM. As for `CC(C)N(C)[C@@H]1CC[C@H](N2CC[C@H](Nc3ncnc4ccc(C(F)(F)F)cc34)C2=O)[C@H](NC(=O)C2CCN(C3CCN(C4CCN(CCCCNC(=O)[C@H]5CC(=O)N(C)[C@@H]5c5cccnc5)CC4)CC3)CC2)C1` [Example 185, N-((1R,2S,5R)-5-(isopropyl(methyl)amino)-2-((S)-2-oxo-3-((6-(trifluoromethyl)quinazolin-4-yl)amino)pyrrolidin-1-yl)cyclohexyl)-1″-(4-((2S,3S)-1-methyl-5-oxo-2-(pyridin-3-yl)pyrrolidine-3-carboxamido)butyl)-[1,4′:1′,4″-terpiperidine]-4-carboxamide], the EC50 is 0.501 nM.

Consider `CC(C)N(C)[C@@H]1CC[C@H](N2CC[C@H](Nc3ncnc4ccc(C(F)(F)F)cc34)C2=O)[C@H](NC(=O)[C@H]2CC[C@H](N3CCC(C(=O)NCCOCCOCCNC(=O)[C@H]4CC(=O)N(C)[C@@H]4c4cccnc4)CC3)CC2)C1` [Example 135], for which the EC50 is 2.51 nM. The value for `CC(C)N(C)[C@@H]1CC[C@H](N2CC[C@H](Nc3ncnc4ccc(C(F)(F)F)cc34)C2=O)[C@H](NC(=O)CCCCCCCCC(=O)NCCOCCOCCNC(=O)[C@H]2CC(=O)N(C)[C@@H]2c2cccnc2)C1` [Example 159, N^1-((1R,2S,5R)-5-(isopropyl(methyl)amino)-2-((S)-2-oxo-3-((6-(trifluoromethyl)quinazolin-4-yl)amino)pyrrolidin-1-yl)cyclohexyl)-N^10-(2-(2-(2-((2S,3S)-1-methyl-5-oxo-2-(pyridin-3-yl)pyrrolidine-3-carboxamido)ethoxy)ethoxy)ethyl)decanediamide] was 2 nM; that for `CN1C(=O)C[C@H](C(=O)NCCOCCOCCC(=O)N[C@H]2CC[C@@H](C(=O)N[C@@H]3C[C@H](NC(C)(C)C)CC[C@@H]3N3CC[C@H](Nc4ncnc5ccc(C(F)(F)F)cc45)C3=O)CC2)[C@H]1c1cccnc1` [Example 120, (2S,3S)-N-(2-(2-(3-(((1S,4s)-4-(((1R,2S,5R)-5-(tert-Butylamino)-2-((S)-2-oxo-3-((6-(trifluoromethyl)quinazolin-4-yl)amino)pyrrolidin-1-yl)cyclohexyl)carbamoyl)cyclohexyl)amino)-3-oxopropoxy)ethoxy)ethyl)-1-methyl-5-oxo-2-(pyridin-3-yl)pyrrolidine-3-carboxamide] was 5.46 nM.
